Here are results for 1 compound from BindingDB's records for PubMed 33650861 (Sichuan University, 2021).

The nature of the assay: Inhibition of BET (unknown origin).

Regarding `Cc1sc2c(c1C)C(c1ccc(Cl)cc1)=N[C@@H](CC(=O)OC(C)(C)C)c1nnc(C)n1-2`, the half-maximal inhibitory concentration (IC50) – broadly, the concentration at which inhibition is half-maximal – is 0.5 µM.
